Assay results taken from paper PMC3731299, “Isoniazid Inhibits the Heme-Based Reactivity of Mycobacterium tuberculosis Truncated Hemoglobin N” (PLoS ONE, 2013).
Like-named read-outs stand apart in the source and are kept apart here. Marks after values point to notes of the source that are not given here.

Legend:
Mt-trHbN(III) [1] = biological target: T1, Mt-trHbN(III) (Mycobacterium tuberculosis, UniProt P9WN25); experiment: Peroxynitrite isomerization by Mt-trHbN(III) in the absence and presence of isoniazid; format: biochemical
T1 construct: made in house
Experimental: Rapid-mixing experiments were performed using either the SX18.MV stopped-flow apparatus (Applied Photophysics, Salisbury, United Kingdom) or the SFM-20 stopped-flow apparatus (Bio-Logic SAS, Claix, France); the dead time was 1.0 ms.
(§1) Kinetics of peroxynitrite isomerization by Mt-trHbN(III) in the absence and presence of isoniazid was recorded spectrophotometrically at 302 nm (ε302 nm = 1.705×10^3 M^−1 cm^−1) [60]–[67] in the absence and presence of Mt-trHbN(III) (final concentration 2.5×10^−6 – 1.0×10^−5 M) and isoniazid (final concentration 3.0×10^−5 – 4.0×10^−4 M) by rapid mixing the Mt-trHbN(III) or buffer solution with the peroxynitrite solution (final concentration 2.5×10^−4 M).
Kinetics of peroxynitrite isomerization by Mt-trHbN(III) in the absence and presence of isoniazid was analyzed in the framework of the minimum reaction mechanism depicted by Scheme D [60]–[67]: [drawing 11] (D)
Values of the pseudo-first-order rate constant for Mt-trHbN(III)-mediated peroxynitrite isomerization (i.e., l ^obs) were determined in the absence and presence of isoniazid according to Equation 8 [60]–[67]: [drawing 12] (8)
Values of the second-order rate constant for Mt-trHbN(III)-mediated peroxynitrite isomerization (i.e., l on) and of the first-order rate constant for peroxynitrite isomerization in the absence of Mt-trHbN(III) (i.e., l 0) were determined from the linear dependence of l ^obs values on the Mt-trHbN(III) concentration according to Equation 9 [60]–[67]: [drawing 13] (9)
The value of K for isoniazid binding to Mt-trHbN(III) was determined from the dependence of l on the drug concentration (i.e., 3.0×10^−5 M ≤ [isoniazid] ≤4.0×10^−4 M) according to Equation 11 [60]–[67]: [drawing 15] (11) where l on ^app is the value of l on in the presence of isoniazid.

Sperm whale Mb(III) [2] = settings: pH 7.0, 25.0°C, cited from earlier work
[3] = for average yield of NO2 – / average yield of NO3 –: absence of Mt-trHbN(III), isoniazid and azide
Mt-trHbN(III) [4] = biological target: T1, Mt-trHbN(III); format: biochemical
Mt-trHbN(III) [5] = biological target: T1, Mt-trHbN(III); experiment: biochemical; format: binding
Mt-trHbN(II) [6] = biological target: T2, Mt-trHbN(II) (Mycobacterium tuberculosis, UniProt P9WN25); format: binding
T2 construct: made in house

KatG(III) = biological target: KatG(III); design: method as in PMID 17309235; settings: pH 7.2, 25.0°C, cited from earlier work
Mt-trHbN(III) [7] = biological target: T1, Mt-trHbN(III); experiment: biochemical; format: binding; remark: listed apart in the source
[8] = Peroxynitrite isomerization in the absence of Mt-trHbN(III); settings: pH 7.0, 20.0°C
Experimental: as §1
Values of l 0 for peroxynitrite isomerization in the absence of Mt-trHbN(III) were also determined in the absence and presence of isoniazid from the analysis of the time-dependent absorbance decrease at 302 nm according to Equation 10 [60]–[67]: [drawing 14] (10)

Mt-trHbN(II) [9] = biological target: T2, Mt-trHbN(II); experiment: O2 binding to Mt-trHbN(II) in the absence and presence of isoniazid (tonometer method); settings: [isoniazid] = 1.0×10^−2 M
Experimental: The value of B was determined by the tonometer method adding small volumes of air to the Mt-trHbN(II) solution (1.3×10^−6 M), in the absence and presence of isoniazid ( = 1.0×10^−2 M; B ^obs).

Mt-trHbN(II) [10] = biological target: T2, Mt-trHbN(II); experiment: Isoniazid binding to Mt-trHbN(II), stopped-flow, anaerobic
plasma protein = test system: plasma protein; design: method as in ref 89 = [89]; 89 Medical Economics (2004) Drug Information for the Health Care Professional, Thomson PDR, Montvale, p. 1689.; settings: cited from earlier work
Sperm whale Mb(III) [11] = settings: pH 7.5, 20.0°C; cited from earlier work
[12] = isoniazid 1.0×10^−4 M, pH 7.0, 20.0°C
[13] = isoniazid 1.2×10^−4 M, pH 7.0, 20.0°C
[14] = isoniazid 2.0×10^−4 M, pH 7.0, 20.0°C
[15] = isoniazid 2.4×10^−4 M, pH 7.0, 20.0°C
[16] = isoniazid 3.0×10^−5 M, pH 7.0, 20.0°C
[17] = isoniazid 5.0×10^−5 M, pH 7.0, 20.0°C
[18] = isoniazid 6.0×10^−5 M, pH 7.0, 20.0°C
[19] = no Mt-trHbN(III), isoniazid 1.0×10^−2 M, pH 7.0, 20.0°C
[20] = Mt-trHbN(III) 5.0×10^−5 M, isoniazid 1.0×10^−2 M, pH 7.0, 20.0°C

## [N-]=[N+]=[N-] [azide]
Mt-trHbN(III) [1]; [azide] >10×H
  Mt-trHbN(III) catalysis of peroxynitrite isomerization: does not catalyze the isomerization of peroxynitrite
Sperm whale Mb(III) [2]
  h off for azide binding to sperm whale Mb(III): h off = 3.0×10^−1 s^−1 ^d
  h on for azide binding to sperm whale Mb(III): h on = 4.4×10^3 M^−1 s^−1 ^d
Sperm whale Mb(III) [2]; read-out: H for azide binding to sperm whale Mb(III)
  Kd: 50 µM
[3]
  average yield of NO2 –: 29%
  average yield of NO3 –: 72%
[3]; pH 7
  NO2 –: 27±6%
  NO3 –: 74±5%
  NO3 – + NO2 –: 101%
Mt-trHbN(III) [4]
  average yield of NO2 –: 26%
  average yield of NO3 –: 74%
Mt-trHbN(III) [4]; pH 7
  NO2 –: 26±4%
  NO3 –: 73±7%
  NO3 – + NO2 –: 99%
Mt-trHbN(III) [5]; pH 7
  first-order dissociation rate constant h off: h off = (7.1±0.8)×10^−1 s^−1
  second-order association rate constant h on: h on = (9.6±1.1)×10^3 M^−1 s^−1
Mt-trHbN(III) [5]; pH 7, read-out: H calculated from kinetic parameters (h off/h on)
  Kd: 74 µM
Mt-trHbN(III) [5]; read-out: dissociation equilibrium constant H for azide binding to Mt-trHbN(III), pH 7
  Kd: 73 µM

## NNC(=O)c1ccncc1 [isoniazid]
Mt-trHbN(II) [6]; 5.0×10^−3 M isoniazid
  effect of isoniazid on CO binding to Mt-trHbN(II): grossly impairs CO binding
Mt-trHbN(II) [6]; [isoniazid] ≥1.0×10^−2 M, data not shown
  phases of CO binding to Mt-trHbN(II): only the slow phase is observed
KatG(III); obtained at equilibrium, read-out: K for isoniazid binding to KatG(III)
  Kd: ~1 µM
KatG(III)
  k off for isoniazid binding to KatG(III): k off = 2.0×10^−2 s^−1
  k on for isoniazid binding to KatG(III): k on = 4.8×10^2 M^−1 s^−1
KatG(III); read-out: K calculated from kinetic parameters (k off/k on) for KatG(III)
  Kd: 42 µM
Mt-trHbN(III) [1]; Equation 11, dependence of l on [isoniazid] 3.0×10^−5 to 4.0×10^−4 M, pH 7.0, 20.0°C, read-out: K for isoniazid binding to Mt-trHbN(III) from inhibition of peroxynitrite isomerization
  Kd: 130 µM
Mt-trHbN(III) [1]; [isoniazid] >10×K
  Mt-trHbN(III) catalysis of peroxynitrite isomerization: does not catalyze the isomerization of peroxynitrite
Mt-trHbN(III) [1]; absence and presence of isoniazid, pH 7.0, 20.0°C
  average l 0 value (l 0 unaffected by isoniazid): 0.28 s⁻¹
Mt-trHbN(III) [1]; from dependence of l on isoniazid concentration
  Hill coefficient n for isoniazid binding to Mt-trHbN(III): 1.00±0.02
Mt-trHbN(III) [1]; [12]
  l 0 for Mt-trHbN(III)-catalyzed peroxynitrite isomerization (y intercept): (3.1±0.3)×10^−1 s^−1
  l on app, second-order rate constant for Mt-trHbN(III)-mediated peroxynitrite isomerization: (3.3±0.3)×10^4 M^−1 s^−1
Mt-trHbN(III) [1]; [13]
  l 0 for Mt-trHbN(III)-catalyzed peroxynitrite isomerization (y intercept): (2.6±0.3)×10^−1 s^−1
  l on app, second-order rate constant for Mt-trHbN(III)-mediated peroxynitrite isomerization: (3.2±0.3)×10^4 M^−1 s^−1
Mt-trHbN(III) [1]; [14]
  l 0 for Mt-trHbN(III)-catalyzed peroxynitrite isomerization (y intercept): (2.5±0.3)×10^−1 s^−1
  l on app, second-order rate constant for Mt-trHbN(III)-mediated peroxynitrite isomerization: (2.7±0.3)×10^4 M^−1 s^−1
Mt-trHbN(III) [1]; [15]
  l 0 for Mt-trHbN(III)-catalyzed peroxynitrite isomerization (y intercept): (3.0±0.3)×10^−1 s^−1
  l on app, second-order rate constant for Mt-trHbN(III)-mediated peroxynitrite isomerization: (2.4±0.3)×10^4 M^−1 s^−1
Mt-trHbN(III) [1]; [16]
  l 0 for Mt-trHbN(III)-catalyzed peroxynitrite isomerization (y intercept): (2.9±0.3)×10^−1 s^−1
  l on app, second-order rate constant for Mt-trHbN(III)-mediated peroxynitrite isomerization: (5.1±0.5)×10^4 M^−1 s^−1
Mt-trHbN(III) [1]; isoniazid 4.0×10^−4 M, pH 7.0, 20.0°C
  l 0 for Mt-trHbN(III)-catalyzed peroxynitrite isomerization (y intercept): (2.5±0.3)×10^−1 s^−1
Mt-trHbN(III) [1]; [17]
  l 0 for Mt-trHbN(III)-catalyzed peroxynitrite isomerization (y intercept): (2.8±0.3)×10^−1 s^−1
  l on app, second-order rate constant for Mt-trHbN(III)-mediated peroxynitrite isomerization: (4.4±0.4)×10^4 M^−1 s^−1
Mt-trHbN(III) [1]; [18]
  l 0 for Mt-trHbN(III)-catalyzed peroxynitrite isomerization (y intercept): (3.0±0.3)×10^−1 s^−1
  l on app, second-order rate constant for Mt-trHbN(III)-mediated peroxynitrite isomerization: (4.1±0.4)×10^4 M^−1 s^−1
Mt-trHbN(III) [7]; pH 7
  Hill coefficient n for isoniazid binding to Mt-trHbN(III): 1.01±0.02
Mt-trHbN(III) [7]; pH 7.0, 20.0°C, Equation 3, read-out: first-order dissociation rate constant k off
  koff: 0.46 s⁻¹
Mt-trHbN(III) [7]; pH 7.0, 20.0°C, Equation 3, read-out: second-order association rate constant k on
  kon: 5300 M⁻¹ s⁻¹
Mt-trHbN(III) [7]; pH 7.0, 20.0°C, obtained at equilibrium, Equation 1, read-out: dissociation equilibrium constant K for isoniazid binding to Mt-trHbN(III)
  Kd: 110 µM
Mt-trHbN(III) [7]; pH 7.0, 20.0°C, read-out: K calculated from kinetic parameters (k off/k on)
  Kd: 87 µM
[8]; isoniazid 1.0×10^−4 M
  l 0 for peroxynitrite isomerization in the absence of Mt-trHbN(III): (3.2±0.3)×10 ^−1 s^−1
[8]; isoniazid 1.2×10^−4 M
  l 0 for peroxynitrite isomerization in the absence of Mt-trHbN(III): (2.4±0.3)×10 ^−1 s^−1
[8]; isoniazid 2.0×10^−4 M
  l 0 for peroxynitrite isomerization in the absence of Mt-trHbN(III): (2.6±0.3) ×10 ^−1 s^−1
[8]; isoniazid 2.4×10^−4 M
  l 0 for peroxynitrite isomerization in the absence of Mt-trHbN(III): (2.9±0.3)×10 ^−1 s^−1
[8]; isoniazid 3.0×10^−5 M
  l 0 for peroxynitrite isomerization in the absence of Mt-trHbN(III): (2.7±0.3)×10 ^−1 s^−1
[8]; isoniazid 4.0×10^−4 M
  l 0 for peroxynitrite isomerization in the absence of Mt-trHbN(III): (2.6±0.3)×10 ^−1 s^−1
[8]; isoniazid 5.0×10^−5 M
  l 0 for peroxynitrite isomerization in the absence of Mt-trHbN(III): (3.0 ±0.3)×10 ^−1 s^−1
[8]; isoniazid 6.0×10^−5 M
  l 0 for peroxynitrite isomerization in the absence of Mt-trHbN(III): (2.6±0.3)×10 ^−1 s^−1
[3]
  average yield of NO2 –: 29%
  average yield of NO3 –: 72%
[3]; [19]
  NO2 –: 31±4%
  NO3 –: 71±6%
  NO3 – + NO2 –: 102%
[3]; pH 7
  NO2 –: 28±4%
  NO3 –: 72±5%
  NO3 – + NO2 –: 100%
Mt-trHbN(II) [9]
  mode of inhibition of O2 binding to Mt-trHbN(II): inhibits competitively
Mt-trHbN(III) [4]
  average yield of NO2 –: 26%
  average yield of NO3 –: 74%
Mt-trHbN(III) [4]; [20]
  NO2 –: 25±4%
  NO3 –: 74±8%
  NO3 – + NO2 –: 99%
Mt-trHbN(III) [4]; pH 7
  NO2 –: 26±4%
  NO3 –: 75±8%
  NO3 – + NO2 –: 101%
Mt-trHbN(III) [5]; 1.0×10^−3 M ≤ [isoniazid] ≤4.0×10^−3 M
  mode of inhibition of azide binding to Mt-trHbN(III): inhibits competitively
Mt-trHbN(III) [5]; Equation 7, H obs/H ratio versus [isoniazid] 1.0×10^−3 to 4.0×10^−3 M, pH 7.0, 20.0°C
  Kd: 95 µM
Mt-trHbN(II) [10]; Mt-trHbN(II) versus Mt-trHbN(III)
  lower affinity for the ferrous form than for the ferric form: 10 fold
Mt-trHbN(II) [10]; average of the D values here determined
  Kd: 1200 µM
Mt-trHbN(II) [10]; pH 7.0, 20.0°C
  Hill coefficient n for isoniazid binding to Mt-trHbN(II): 1.01±0.01
Mt-trHbN(II) [10]; pH 7.0, 20.0°C, Equation 14, read-out: first-order dissociation rate constant d off
  koff: 1.5 s⁻¹
Mt-trHbN(II) [10]; pH 7.0, 20.0°C, Equation 14, read-out: second-order association rate constant d on
  kon: 1300 M⁻¹ s⁻¹
Plasma protein
  plasma protein binding: very poor

## O=NOO [peroxynitrite]
Sperm whale Mb(III) [11]
  l on for peroxynitrite detoxification by sperm whale Mb(III): l on = 1.6×10^4 M^−1 s^−1 ^e
